Literature values as cited in patent US20140343147A1, “NUTRITIONAL SUPPLEMENT FOR THE ENHANCEMENT OF MUSCLE PERFORMANCE AND RECOVERY AND METHODS OF USE THEREOF” (Maximum Human Performance, LLC, priority 2011, published 2014).

Columns and labels:
[1] = test system: mice; settings: iv. in mice, Na-salt
[2] = colorless crystals; water and alcohol
[3] = test system: humans; settings: daily dose
[4] = test system: rats; settings: daily dose

| Compound | LD50 [1] | solubility [2] | luteinizing hormone levels [3] | testosterone levels [3] | luteinizing hormone levels [4] | testosterone levels [4] |
| --- | --- | --- | --- | --- | --- | --- |
| CC(C)CC(O)C(=O)O (stereo not drawn) [HICA, 2-hydroxy-4-methylvaleric acid] | 650 mg/kg | soluble in water and alcohol |  |  |  |  |
| N[C@H](CC(=O)O)C(=O)O [D-aspartic acid] |  |  | increase | increase | increase | increase |
